# Experimental data reported in US20150265703A1, “COMBINATION THERAPY OF AN AFUCOSYLATED CD20 ANTIBODY WITH A mTOR INHIBITOR” (ROCHE GLYCART AG, priority 2010, published 2015).
# Tested on: SU-DHL-4 human lymphoma cells
# Test: Tumor growth inhibition study in vivo, SC SU-DHL-4 tumors in SCID beige mice
# Settings: for SU-DHL-4 tumors growth in comparison with tumors from vehicle-treated animals: 3 mg/kg, single agent; for T/C (%) values of the treatment groups compared to the vehicle group: day 46 after tumor cell injection, GA101 3 mg/kg IV Q7Dx4, Torisel 3 mg/kg IP Q3Dx10, SC SU-DHL-4 tumors, SCID beige mice
# Protocol: Test Agents Type II anti-CD20 antibody B-HH6-B-KV1 GE (=humanized B-Ly1, glycoengineered B-HH6-B-KV1=GA101; see WO 2005/044859 and WO 2007/031875) was provided from GlycArt, Schlieren, Switzerland. Antibody buffer included histidine, trehalose and polysorbate 20. Antibody solution was diluted appropriately in PBS from stock for prior injections. Temsirolimus (Torisel®, 25 mg/ml, Wyeth Pharmaceuticals) was supplied by Oncodesign and stored at +4° C. protected from light according to the supplier's instructions.
# SU-DHL-4 human lymphoma cells (DSMZ NO.: ACC 495) were grown as a suspension at 37° C. in a humidified atmosphere (5% CO2, 95% air). The culture medium was RPMI 1640 containing 2 mM L-glutamine (Ref BE12-702F, Batch N° 8MB0056, Lonza, Verviers, Belgium) and supplemented with 10% fetal bovine serum (Ref 3302, Batch N^o P282005, Lonza). The cells were counted in a hemocytometer and their viability was assessed by 0.25% trypan blue exclusion.
# Female CB17 SCID beige mice, 5-6 week-old and weighing 16-20 g, were obtained from Charles River (L'Arbresle, France).
# Ten millions (10^7) SU-DHL-4 tumor cells in 100 μl of PBS with matrigel (50:50, BD Biosciences, France) were subcutaneously (SC) injected into the right flank of 52 female SCID beige mice.
# All study data, including animal body weight measurements, tumor volume, clinical and mortality records, and drug treatment management were managed using Vivo Manager® software (Biosystemes, Dijon, France).
# Isoflurane Forene (Minerve, Bondoufle, France) was used to anaesthetize the animals before SC inoculation of tumor cells, IV injection of compounds and sacrifice. Mortality, clinical signs and behaviour were recorded every day. Animal body weights and tumor volumes were monitored and recorded twice a week.
# When the tumors reached a mean volume of 173±95 mm^3, 40 out of 52 tumor bearing […] mice were distributed in 4 groups of 10 mice. The treatment schedule was chosen as following: • Mice from group 1 received once weekly IV bolus injection of vehicle for 4 consecutive weeks (Q7Dx4). • Mice from group 2 received once weekly IV bolus injection of anti-CD20 antibody GA101 (B-HH6-B-KV1 GE) at 3 mg/kg/inj for 4 consecutive weeks (Q7Dx4). • Mice from group 3 received once daily IP injection of Torisel® at 3 mg/kg/inj with a 3-day interval between each dosing and a total of 10 injections (Q3Dx10). • Mice from group 4 received once weekly IV bolus injection of anti-CD20 antibody GA101 (B-HH6-B-KV1 GE) at 3 mg/kg/inj for 4 consecutive weeks (Q7Dx4) in combination with once daily IP injection of Torisel® at 3 mg/kg/inj with a 3-day interval between each dosing and a total of 10 injections (Q3Dx10)].
# The antitumor efficacy of anti-CD20 antibody GA101 (B-HH6-B-KV1 GE) alone and in combination with Torisel® was examined. […]
Compound,SU-DHL-4 tumors growth in comparison with tumors from vehicle-treated animals,T/C (%) values of the treatment groups compared to the vehicle group
"CO[C@H]1C[C@@H]2CC[C@@H](C)[C@@](O)(O2)C(=O)C(=O)N2CCCC[C@H]2C(=O)O[C@H]([C@H](C)C[C@@H]2CC[C@@H](OC(=O)C(C)(CO)CO)[C@H](OC)C2)CC(=O)[C@H](C)/C=C(\C)[C@@H](O)[C@@H](OC)C(=O)[C@H](C)C[C@H](C)/C=C/C=C/C=C/1C [Torisel, Temsirolimus]",partially delayed,60%
"GA101: Type II anti-CD20 antibody, humanized B-Ly1, glycoengineered B-HH6-B-KV1 (VH SEQ ID NO:7, VL SEQ ID NO:20), afucosylated IgG1",partially delayed,51%
